Reference: paper PMC4143171 (Journal of nuclear medicine : official publication, Society …, 2010)
Bridges are numbered along the chain shown (N, C = ends). Where no end group is shown, it is not given here.

Biological target: integrin receptors expressed on surface of U87MG glioblastoma cells (Homo sapiens, UniProt P05106+P06756)
Assay: U87MG competition binding assay

For “ECESGPCCRNCKFLKEGTICKRARGDDMDDYCNGKTCDCPRNPHKGPAT (disulfide 2-11, 7-32, 8-37, 20-39 (inferred)) [echistatin]”, the IC50 was 3.3 ± 0.6 nM.
